We go through nine compounds from ChEMBL document CHEMBL3232835, “Discovery of trifluoromethyl(pyrimidin-2-yl)azetidine-2-carboxamides as potent, orally bioavailable TGR5 (GPBAR1) agonists: structure-activity relationships, lead optimization, and chronic in vivo efficacy” (J Med Chem, 2014).

Data set [1] in a line: AUC in mouse plasma at 20 mg/kg up to 5 hrs. Format: ADME, organism-based. Set-up: time < 5 hr, dose 20 mg/kg.
Data set [2] is described as follows: in vitro. As to conditions: human, Caco-2.
Data set [3] is described as follows: in vitro. As to conditions: human, Caco-2. The source holds these as a separate data set.
Data set [4] can be described thus: Cmax in ob/ob mouse at 30 mg/kg, po qd measured on day 37. Format: ADME, organism-based. Set-up: dose 30 mg/kg, route oral. As to conditions: in vivo.
Data set [5] in a line: Cmax in ob/ob mouse at 30 mg/kg, po qd measured on day 1. Format: ADME, organism-based. Also noted: dose 30 mg/kg, route oral. The note with it: in vivo.
Data set [6] can be described thus: Volume of distribution at steady state in mouse at 5 mg/kg, iv. The note with it: in vivo, read-out: Vdss. The format is ADME, organism-based. Also noted: dose 5 mg/kg, route intravenous.
Data set [7] is described as follows: Cmax in mouse at 20 mg/kg, po. Format: ADME, organism-based. Also noted: dose 20 mg/kg, route oral. The note with it: in vivo.
Data set [8] can be described thus: AUC in ob/ob mouse at 30 mg/kg, po qd measured on day 1. Format: ADME, organism-based. Set-up: dose 30 mg/kg, route oral. As to conditions: plasma.
Data set [9] is described as follows: AUC in mouse at 5 mg/kg, iv. The note with it: plasma. Also noted: dose 5 mg/kg, route intravenous. Format: ADME, organism-based.
Data set [10] in a line: Oral bioavailability in mouse at 20 mg/kg. The format is ADME, organism-based. As to conditions: in vivo.
A short description of data set [11]: AUC in ob/ob mouse at 30 mg/kg, po qd measured on day 37. Format: ADME, organism-based. Also noted: dose 30 mg/kg, route oral. As to conditions: plasma.
Data set [12] in a line: Cmax in mouse at 5 mg/kg, iv. Format: ADME, organism-based. Also noted: dose 5 mg/kg, route intravenous. As to conditions: in vivo.
Data set [13] can be described thus: AUC in mouse at 20 mg/kg, po. As to conditions: plasma. Also noted: dose 20 mg/kg, route oral. Format: ADME, organism-based.
Data set [14] in a line: Lipophilicity, log D of the compound at pH 6.8. Format: physicochemical. The note with it: buffer.

In data set [1], `CC1(C(=O)O)CCN(c2cc(N3CCC[C@@H](C(=O)NCCc4ccc(C#N)cc4)C3)nc(C(F)(F)F)n2)CC1` had an AUC at 5 h of 1.05 µM·h. In [2], this compound displayed a Papp A→B of 1.02 ×10⁻⁶ cm/s. The compound further had a basolateral-to-apical permeability (Papp B→A) in data set [3] of 13.5 ×10⁻⁶ cm/s.
`N#Cc1ccc(CCNC(=O)[C@@H]2CCN2c2cc(-c3ccc(-c4ccc(C(=O)O)cc4)cc3)nc(C(F)(F)F)n2)cc1`: in [1], the AUC at 5 h came out at 13.9 µM·h.
With `N#Cc1ccc(CCNC(=O)[C@@H]2CCCN(c3cc(N4CCC(C(=O)O)CC4)nc(C(F)(F)F)n3)C2)cc1`, the AUC at 5 h in data set [1] worked out at 0.108 µM·h. This compound yielded a Papp A→B in data set [2] of 1.36 ×10⁻⁶ cm/s. In data set [3], this compound showed a Papp B→A of 13 ×10⁻⁶ cm/s.
On the same counts, the results for `N#Cc1ccc(CCNC(=O)[C@@H]2CCCN(c3cc(N4CCC(Oc5ccc(CC(=O)O)cc5)CC4)nc(C(F)(F)F)n3)C2)cc1` are 5.02 µM·h, 2.12 ×10⁻⁶ cm/s and 6.4 ×10⁻⁶ cm/s.
In data set [1], `N#Cc1ccc(CCNC(=O)[C@@H]2CCN2c2cc(N3CCC(Oc4ccc(C(=O)O)cc4)CC3)nc(C(F)(F)F)n2)cc1` had an AUC at 5 h of 7.53 µM·h.
`N#Cc1ccc(CCNC(=O)[C@@H]2CCN2c2cc(N3CCC(Oc4ccc(CC(=O)O)cc4)CC3)nc(C(F)(F)F)n2)cc1`: in data set [1], the AUC at 5 h worked out at 14.2 µM·h.
Take `N#Cc1ccc(CCNC(=O)[C@@H]2CCN2c2cc(-c3ccc([C@H]4CC[C@H](C(=O)O)CC4)cc3)nc(C(F)(F)F)n2)cc1`: the Cmax in data set [4] came to 5.17 µM; in data set [5], 4.77 µM; in [7] it was 9.75 µM; in data set [12] it was 12 µM. Also, the Vd in data set [6] is 1.31 L/kg. Further, in data set [1], the AUC at 5 h was 11.4 µM·h. Moreover, the AUC was 45.5 µM·h in data set [8], 13.9 µM·h in data set [9], 37.5 µM·h in data set [11] and 53.8 µM·h in data set [13]. Also, in data set [10], the bioavailability is 96.5%. The same compound registered a logD in data set [14] of 2.5.
Turning to `CN1CCN(c2cc(N3CCC[C@@H](C(=O)NCCc4ccc(C#N)cc4)C3)nc(C(F)(F)F)n2)CC1`, in [6], the Vd stood at 1.6 L/kg. Further, the Cmax was determined as 1.07 µM in data set [7] and 4.52 µM in data set [12]. For the same compound, the AUC in data set [9] stood at 2.67 µM·h; in data set [13], 2.54 µM·h. Also, the bioavailability in [10] turned out to be 24%.
Regarding `COc1cc(C2CCN(c3cc(N4CC[C@H]4C(=O)NCCc4ccc(C#N)cc4)nc(C(F)(F)F)n3)CC2)ccc1C(=O)O`, the AUC at 5 h in [1] was determined as 3.74 µM·h. Also, the Papp A→B in data set [2] was 2.7 ×10⁻⁶ cm/s. Moreover, the Papp B→A in data set [3] was determined as 12.9 ×10⁻⁶ cm/s.

A word on the AUC: it is concentration integrated over time. One may read the Papp A→B as the apparent permeability from the apical to the basolateral side of a cell layer. In general, Papp B→A refers to the apparent permeability from the basolateral to the apical side of a cell layer. One may read the Cmax as the peak of the concentration-time curve. Broadly, the bioavailability is dose-corrected exposure relative to a reference, in per cent. What is called logD is lipophilicity at a set pH, counting ionised and neutral species. A lower logD goes with lower lipophilicity.
